Results as given in patent US10913757B2, “Hydroxycinnamic derivatives, methods and uses thereof” (UNIVERSIDADE DO PORTO, priority 2016, dated 2021).

What was measured:
[1] = Redox properties by differential pulse and cyclic voltammetry; assay type: physicochemical; settings: for reversibility of the oxidation reaction: cyclic voltammetry, physiological pH; for Ep (redox potential): physiological pH (7.4), voltammetry
Method: In an embodiment, and as an example, AntiOxCINs redox properties were evaluated (Table 1). Redox potentials are correlated with the ability of an antioxidant to donate a hydrogen atom and/or an electron to a free radical.
However, for pyrogallol derivatives (AntiOxCIN4, AntiOxCIN5 and AntiOxCIN7), a significant decrease in redox potentials was observed (Ep=0.034-0.057 V) (Table 1).
The voltammograms presented a diffusion peak and an adsorption post-peak at a more anodic potential correspondent to the oxidation of dissolved and adsorbed forms of the compounds, respectively. The oxidation waves can be related to the oxidation process of the pyrogallol moiety. The cyclic voltammograms also show the presence of two overlapped anodic peaks. The anodic peaks appeared to correspond to irreversible processes as any distinct reduction wave was not seen on the cathodic sweep. The existence of the additional phenolic group in the pyrogallol systems, when compared with the catechol ones, seems to influence the stabilization of the semiquinone intermediate and in turn the oxidative mechanism.
In an embodiment, the electrochemical analytical data was obtained using a computer controlled potentiostat Autolab PGSTAT302N (Metrohm Autolab, Utrecht, Netherlands). Generally, cyclic voltammetry (CV) data was acquired at a scan rate of 50 mVs^−1. Differential pulse voltammetry (DPV) results were acquired at a step potential of 4 mV, pulse amplitude of 50 mV and scan rate of 8 mVs^−1. The electrochemical signals were monitored by the General Purpose Electrochemical System (GPES) version 4.9, software package. All electrochemical experiments were performed at room temperature in an electrochemical cell that was placed in a Faraday cage in order to minimize the contribution of background noise to the analytical signal.
In an embodiment, the process of evaluation of AntiOxCINs redox properties was conducted as follows: stock solutions of each compound (10 mM) were prepared by dissolving the appropriate amount in ethanol. The voltammetric working solutions were prepared in the electrochemical cell, at a final concentration of 0.1 mM. The […] supporting electrolyte was prepared by diluting […] to 100 mL. Voltammetric data was acquired in a three-electrode system consisting of a glassy carbon electrode (GCE, d=2 mm) as working electrode, a counter electrode of platinum wire and a saturated Ag/AgCl reference electrode. In an embodiment, the evaluation of AntiOxCINs lipophilic properties was performed as follows: the electrochemical cell was a four-electrode system with arrays of micro liquid-liquid interfaces (μlTIES) containing two Ag/AgCl reference electrodes and two counter electrodes of Pt, one in each phase. The microporous membrane was sealed with a fluorosilicone sealant (Dow Corning 730) onto a glass cylinder which was filled with 4.0 mL of the aqueous phase, where the aliquots of AntiOxCINs solutions were added. The membrane was then immersed into the organic phase contained in the cell. The organic phase reference solution (a 2 mM BTPPACI+2 mM NaCl aqueous solution) was mechanically stabilized The aqueous supporting electrolyte solution was a Tris-HCl buffer 10 mM pH 7.0.

[2] = system: rat liver mitochondria (RLM); assay: Mitochondrial respiration of isolated RLM (Clark-type oxygen electrode); assay type: biochemical; settings: for effect on state 3 respiration: all tested concentrations (2.5-10 μM), FIG. 6B-H
Method: In an embodiment, and as an example, AntiOxCINs and MitoQ toxicity effects on the mitochondrial bioenergetics, namely on RLM ΔΨ and mitochondrial respiration parameters, were measured. The […] represents the main component of the electrochemical gradient generated by mitochondrial respiration and accounts for more than 90% of the total available energy. For mitochondrial respiration assays, glutamate/malate (for complex I) and succinate (for complex II) were used as substrates. In addition, the mitochondrial oxidative phosphorylation coupling index, known as respiratory control ratio (RCR, state 3/state 4 respiration) and ADP/O index (the coupling between ATP synthesis and oxygen consumption) were also calculated. AntiOxCINs and MitoQ were tested at antioxidant-relevant concentrations, with 10 μM being the highest concentration.
In an embodiment, the evaluation of AntiOxCINs functional mitochondrial toxicity profile was performed in rat liver mitochondria (RLM). […] The protein concentration was determined by the biuret assay using BSA as a standard.
In an embodiment, the evaluation of AntiOxCINs effect on mitochondrial respiration was performed as follows: the respiration of isolated RLM was evaluated polarographically with a Clark-type oxygen electrode, connected to a suitable recorder in a 1 mL thermostated water-jacketed chamber with magnetic stirring, at 37° C.^1. […] Increasing concentrations of AntiOxCINs (2.5-10 μM) were added to the reaction medium containing respiratory substrates glutamate/malate (10 mM and 5 mM respectively) or succinate (5 mM) and RLM (1 mg) and allowed to incubate for a 5 min period prior to the assay. State 2 was considered as the respiration during the 5 min incubation time with AntiOxCINs. […] State 4 was determined after ADP phosphorylation finished. Subsequent addition of oligomycin (2 μg/ml) inhibited ATP-synthase and originated the oligomycin-inhibition respiration state. Finally, 1 μM FCCP was added to induce uncoupled respiration.

[3] = DPPH radical scavenging activity (TAC assay); assay type: biochemical; settings: ethanol, absorbance 515 nm
Source text: In an embodiment, the AntiOxCINs antioxidant ranking activity hierarchy was established by in vitro non-cell methods. The selected total antioxidant capacity (TAC) assays (DPPH, ABTS and GO) involved the spectrophotometric measurement of the radical absorbance decrease as a result of an in situ radical deactivation by an antioxidant. Compounds with higher antioxidant activity display lower IC50 values. […] This decrease was attenuated/ameliorated by the increment of the spacer length and/or the introduction of additional hydroxyl group in the aromatic ring.
The radical scavenging activity of AntiOxCINs was evaluated by means of total antioxidant capacity assays based on DPPH., ABTS.^+ and GO. radicals. All these methods involved the spectrophotometric measurement of the absorbance decrease resulting from radical (DPPH., ABTS.^+ or GO.) deactivation with an antioxidant. The results were expressed in IC50, which is defined as the minimum antioxidant concentration necessary to reduce the amount of radical by 50%. Antioxidant assays were performed in a multiplate reader (Powerwave XS Microplate Reader) of Bio-Tech instruments.
In an embodiment, the DPPH. radical scavenging activity was performed as follows: solutions of the test compounds with increasing concentrations (range between 0 μM and 500 μM) were prepared in ethanol. A DPPH′ ethanolic solution (6.85 mM) was also prepared and then diluted to reach the absorbance of 0.72±0.02 at 515 nm. Each compound solution (20 μL) was added to 180 μL of DPPH′ solution in triplicate, and the absorbance at 515 nm was recorded minutely over 45 minutes. […] Dose-response curves were established for the determination of IC50 values. Data are means±SEM of three independent experiments.

Structure (SMILES)	reversibility of the oxidation reaction [1]	Ep (redox potential) ([1]; listed as AntiOxClN2, methanesulfonate) [V]	effect on state 3 respiration [2]	ADP/O ([2]; glutamate/malate, 2.5 μM)	RCR (respiratory control ratio, state 3/state 4) ([2]; glutamate/malate, 2.5 μM)	ADP/O ([2]; glutamate/malate, 5 μM)	RCR (respiratory control ratio, state 3/state 4) ([2]; glutamate/malate, 5 μM)	ADP/O ([2]; glutamate/malate, 10 μM)	RCR (respiratory control ratio, state 3/state 4) ([2]; glutamate/malate, 10 μM)	ADP/O ([2]; succinate, 2.5 μM)	RCR (respiratory control ratio, state 3/state 4) ([2]; succinate, 2.5 μM)	ADP/O ([2]; succinate, 5 μM)	RCR (respiratory control ratio, state 3/state 4) ([2]; succinate, 5 μM)	ADP/O ([2]; succinate, 10 μM)	RCR (respiratory control ratio, state 3/state 4) ([2]; succinate, 10 μM)	IC50 [3] [µM]	Ep (redox potential) ([1]; listed as AntiOxClN3) [V]	Ep (redox potential) ([1]; listed as AntiOxClN4, methanesulfonate) [V]	Ep (redox potential) ([1]; listed as AntiOxClN5, methanesulfonate) [V]
CS(=O)(=O)[O-].O=C(/C=C/c1ccc(O)c(O)c1)NCCCCCC[P+](c1ccccc1)(c1ccccc1)c1ccccc1 [AntiOxCIN2, (E)-(6-(3-(3,4-dihydroxyphenyl)prop-2-enamido)hexyl)triphenylphosphonium methanesulfonate]	reversible reaction	0.164	decrease	2.4 ± 0.04	5.2 ± 1.0	2.2 ± 0.1	3.9 ± 0.6	2.2 ± 0.1	3.4 ± 0.3	1.4 ± 0.1	3.3 ± 0.2	1.3 ± 0.1	3.3 ± 0.2	1.1 ± 0.1	2.1 ± 0.2	29.5	–	–	–
CS(=O)(=O)[O-].O=C(/C=C/c1ccc(O)c(O)c1)NCCCCCCCC[P+](c1ccccc1)(c1ccccc1)c1ccccc1 [AntiOxCIN3, (E)-(8-(3-(3,4-dihydroxyphenyl)acrylamido)octyl)triphenylphosphoniummethanesulfonate]	reversible reaction	–	increase	2.4 ± 0.2	3.8 ± 0.5	2.7 ± 0.2	3.5 ± 0.5	2.4 ± 0.1	3.3 ± 0.3	1.6 ± 0.1	4.1 ± 0.5	1.8 ± 0.3	4.7 ± 0.7	1.6 ± 0.1	3.9 ± 0.6	28	0.170	–	–
CS(=O)(=O)[O-].O=C(/C=C/c1cc(O)c(O)c(O)c1)NCCCCCC[P+](c1ccccc1)(c1ccccc1)c1ccccc1 [AntiOxCIN4, (E)-(6-(3-(3,4,5-trihydroxyphenyl)prop-2-enamido)hexyl)triphenylphosphonium methanesulfonate]	irreversible oxidation reaction	–	decrease	2.4 ± 0.1	5.3 ± 0.8	2.2 ± 0.1	4.3 ± 0.7	2.2 ± 0.1	3.5 ± 0.5	1.4 ± 0.1	3.4 ± 0.3	1.3 ± 0.1	3.0 ± 0.34	1.3 ± 0.02	2.7 ± 0.4	19	–	0.034	–
CS(=O)(=O)[O-].O=C(/C=C/c1cc(O)c(O)c(O)c1)NCCCCCCCC[P+](c1ccccc1)(c1ccccc1)c1ccccc1 [AntiOxCIN5, (E)-(8-(3-(3,4,5-trihydroxyphenyl)acrylamido)octyl)triphenylphosphonium methanesulfonate]	irreversible oxidation reaction	–	increase	2.4 ± 0.1	3.7 ± 0.4	2.5 ± 0.1	3.7 ± 0.4	2.5 ± 0.1	3.2 ± 0.1	1.6 ± 0.1	4.2 ± 0.4	1.5 ± 0.1	4.4 ± 0.8	1.6 ± 0.1	4.0 ± 0.8	14.7	–	–	0.046
